Test results reported in PMC2909366 (Journal of biological inorganic chemistry : JBIC : a …, 2010).

How the values were obtained:
chlorite dismutase (Cld) [1] = target: T1, chlorite dismutase (Cld) (Dechloromonas aromatica (nom. nud.), UniProt Q47CX0); experiment: biochemical
chlorite dismutase (Cld) [2] = target: T1, chlorite dismutase (Cld); experiment: X-ray co-crystal structure; type: binding

T1 sequence (Q47CX0 35-282): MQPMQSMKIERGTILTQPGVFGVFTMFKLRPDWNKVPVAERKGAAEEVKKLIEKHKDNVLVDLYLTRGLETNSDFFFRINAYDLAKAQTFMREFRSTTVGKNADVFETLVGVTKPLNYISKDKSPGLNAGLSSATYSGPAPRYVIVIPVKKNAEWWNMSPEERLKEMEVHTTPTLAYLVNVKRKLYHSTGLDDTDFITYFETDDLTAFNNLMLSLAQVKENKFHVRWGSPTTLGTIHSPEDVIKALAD

| Kd (chlorite dismutase (Cld) [1]) | Structure (SMILES) | Kd (chlorite dismutase (Cld) [2]) |
| --- | --- | --- |
| 36 mM | CC(=O)O [acetate] |  |
|  | O=NO [nitrite] | 1.12 mM |
